Experimental data as given in paper PMC10791743, “Selective CK1α degraders exert antiproliferative activity against a broad range of human cancer cell lines” (Nature Communications, 2024).
“And” between values parts separate entries of the source, which are not always exact repeats. Equal values may be shown once.

Legend:
Type in all cases: in vitro ADME
[1] = Plasma protein binding assay (RED), human
Procedure: (§1) page 33: the need for further incubation. Following quenching, all plates were thoroughly mixed at 600 rpm for 10 minutes and centrifuged at 4000 rpm for 20 minutes. Supernatants were transferred to […] MS/MS analysis. Plasma stability was evaluated by determining the half-life through a least-squares fit of multiple time points based on first-order kinetics. Plasma protein binding assay: Test compound stock solutions were prepared at a concentration of 10 mM in DMSO. A Single-Use RED (Rapid Equilibrium Dialysis) device was acquired from Thermo Scientific (Cat. No: 99006, Rockford, IL). The sample preparation for plasma protein binding followed a modified version of Waters' method6. After thawing, plasma was centrifuged at 1000 rpm for 10 minutes to eliminate any particulates. Each compound was then prepared at a concentration of 10 µM in either human or mouse plasma. In the plasma protein binding assessment, 300 µL of spiked plasma solutions were introduced into the sample chamber (indicated by the red ring), while 550 µL of DPBS was added to the adjacent chamber. The plate was sealed and incubated at 37°C on an orbital shaker (100 rpm) for 4 hours. Post -incubation, 50 µL aliquots were withdrawn from each side of the insert and dispensed into a 96 -well storage plate. To create analytically identical sample matrices (matrix matching), an equivalent volume of blank plasma or DPBS was added to the necessary wells, followed by quenching w ith 3-fold (v:v) cold acetonitrile containing warfarin as the internal standard. Subsequently, the sealed plates were well -mixed at 600 rpm for 10 minutes and then centrifuged at 4000 rpm for 20 minutes. Supernatants were transferred to analytical […] Test compound concentrations were quantified in both the buffer and plasma chambers by determining peak areas relative to the internal standard. The percentage of the test compound bound to plasma was calculated using the following equation (4): %Free = (Concentration buffer chamber / concentration plasma chamber) x 100% and equation (5) %Bound = 100% - %Free.

[2] = Plasma protein binding assay (RED), mouse
Procedure: as §1

[3] = Liver microsomes stability assay, mouse
Procedure: page 31: using a REMS Autosampler (World Precision Instruments, Sarasota, […]1 cells were grown for 5 days to reach a consistent confluency level monitored by epithelial voltohmmeter to confirm the intactness of the confluent polarized monolayer. For transport experiments, each cultured monolayer on the 96-well plate was washed twice with a transport buffer (HBSS/25 mM […] The cell-based permeability assay was initiated by the addition of each compound solution (10 μmol/L) into inserts (apical side, A) or receivers (basolateral side, B). After incubated […] (if basal to apical permeability), and concentrations were assessed by UPLC/MS (Waters; Milford, MA). All compounds were tested in triplicates. The A→B (or B→A) apparent permeability coefficients (Papp) of each compound were calculated using the equation (3): […], where dQ/dt equals the flux of a drug across the monolayer, the parameters of A equals the surface area of total insert well, and C0 is the initial concentration of substrate in the donor compartment. The efflux ratio was determined by dividing the Papp in the B-A direction by the Papp in the A-B direction. […] NADPH regenerating agent solutions A and B (Corning GentestTM, Cat. No: 451220) were purchased from Discovery Labware (Woburn, MA). Mouse liver microsomes (CD-1, pooled, GibcoTM, Cat. No: MSMCPL) were obtained from Thermo Fisher Scientific (Fredrick, MD). Pooled human liver microsomes (mixed gender, Cat. No: E0630) were purchased from XenoTech (Lenexa, KS). Stock solutions of test compounds were prepared at 10 mM in DMSO. Sample preparation for microsomal stability was modified from Di's publications3,4. […] and 4 hours) by Labcyte Echo 650 acoustic dispenser (Beckman Coulter Life Sciences, Indianapolis, IN). All compounds were tested in triplicate per time point. […] Plasma stability assay5: The degradation of human or mouse plasma was assessed by monitoring the gradual reduction of the parent compound over specified time intervals (0, 3, 24, and 48 hours). […]

[4] = human plasma, single replicates
[5] = mouse plasma, single replicates

| Structure (SMILES) | fraction unbound at 4 h, 10 µM ([1]; human, plasma) | fraction unbound at 4 h, 10 µM ([2]; mouse, plasma) | half-life at 10 µM ([3]; CD-1, mouse, liver microsomes, pH 7.4, read-out: Microsome stability t1/2) [h] | AVG %Bound ([1]; human plasma, average of 3 replicates) [%] | %Bound [1, 4] | %Free [1, 4] | AVG %Bound ([2]; mouse plasma, average of 3 replicates) [%] | %Bound [2, 5] | %Free [2, 5] | Ke [3] | t(1/2) [3] |
| --- | --- | --- | --- | --- | --- | --- | --- | --- | --- | --- | --- |
| O=C1CCC(N2Cc3cc(Nc4noc5ccccc45)ccc3C2=O)C(=O)N1 (centres unmarked) [SJ3149] | 0.023 | 0.038 | > 10 | – | – | – | – | – | – | – | – |
| O=C1CCC(N2Cc3cc(Nc4noc5ccccc45)ccc3C2=O)C(=O)N1 (centres unmarked) [SJ001043149-1] | – | – | – | 97.7 | 97.5829% and 97.7158% and 97.77% | 2.417% and 2.284% and 2.23% | 96.2 | 96.641% and 95.489% and 96.3948% | 3.359% and 4.511% and 3.605% | -0.01 | -69.12 |
